# Results as given in US20230405003A1, “APPLICATION OF THYMIDINE DERIVATIVE IN PREPARATION OF DRUGS” (ONQUALITY PHARMACEUTICALS CHINA LTD., priority 2020, published 2023).
# Read-outs that look alike come from different tables or passages of the source.
# Experiments:
# Type in all cases: in vivo
# [1] = tested on: hand-foot syndrome caused by capecitabine in Balb/c mice; experiment: Mouse model of hand-foot syndrome caused by capecitabine, gel application or oral administration; settings: capecitabine 1000 mg/kg once daily; for inhibition in vivo at 300 mg/kg / inhibition in vivo at 0.5 % / inhibition in vivo at 2 % / inhibition in vivo at 5 % / inhibition in vivo at 1 % / inhibition in vivo at 3 % / inhibition in vivo at 200 mg/kg / inhibition in vivo at 250 mg/kg: Mus musculus; for inhibition in vivo at 300 mg/kg / inhibition in vivo at 200 mg/kg / inhibition in vivo at 250 mg/kg: 192 h, 8 days; for inhibition in vivo at 300 mg/kg: oral 300 mpk twice per day; for inhibition in vivo at 0.5 % / inhibition in vivo at 2 % / inhibition in vivo at 5 % / inhibition in vivo at 1 % / inhibition in vivo at 3 %: topical, 360 h; for inhibition in vivo at 0.5 %: gel 0.5 wt%; for inhibition in vivo at 0.5 % / inhibition in vivo at 2 % / inhibition in vivo at 5 % / inhibition in vivo at 1 % / inhibition in vivo at 3 % / Control Rate Forepaws / Control Rate Hindpaws: 15 days; for inhibition in vivo at 2 %: gel 2 wt%; for inhibition in vivo at 5 %: gel 5 wt%; for inhibition in vivo at 200 mg/kg: oral 200 mpk twice per day; for inhibition in vivo at 250 mg/kg: oral 250 mpk twice per day
# Procedure: A mouse animal model was established. 6-week aged male Balb/c mice were administered with capecitabine by daily gavage. After a few days, mice's paws developed hand-foot syndrome symptoms (similar to the results of the rat model, such as, in FIG. 13). Similar to the human body, mice developed hand-foot syndrome in the forepaws and hind paws after oral administration of capecitabine. The causes of the two are the same, and the disorder is also very similar. Therefore, mice are very good animal models for simulating the hand-foot syndrome caused by capecitabine.
# After Balb/c mice were fed and adapted for one week (about 20 g), the mice were divided into groups, with 10 mice in each group. Then, the mice were subject to gavage administration. Capecitabine was dissolved in normal saline with pH=8, and the gavage dose was not greater than 0.3 mL at each time. After gavage, the blank gel was applied to the forepaws and the hind paws (about 4*0.5 cm*0.5 cm) in group of blank gel, and gels containing different drugs were applied to the forepaws and the hind paws (about 4*0.5 cm*0.5 cm) in group of administration. After application, the mice were fixed in Elizabethan collar for 4 hours. After 4 hours, the mice were released, wiped with clean water to remove any residual drug at the application site, and allowed back to the cage. The gavage and application tests are repeated daily until the group of blank has developed obvious hand-foot syndrome. […] Additionally, the thymidine derivative and the combination of thymidine derivative and uridine derivative were orally administered for observing the relief of the hand-foot syndrome. In examples 41-48, thymidine derivative and/or uridine derivative were/was applied, and in examples 49-52, thymidine derivative and/or uridine derivative were/was administered orally.
# Table 5 lists the combinations of animal experiments of capecitabine and thymidine derivative (or a combination of thymidine derivative and uridine derivative) and the corresponding experimental results (wherein the data in the column of control rate=the occurrence rate of hand-foot syndrome in group of blank—the occurrence rate of hand-foot syndrome in group of administration).
# The effect of thymidine derivative or a combination of thymidine derivative and uridine derivative on a mouse model with chemotherapeutic drug (capecitabine)-induced hand-foot syndrome was tested according to the method in Examples 41-52. Wherein, the drugs were administered transdermally for Examples 119-120 and orally for Examples 121-123.
# (§1) The test thymidine derivative or the combination of thymidine derivative and uridine derivative, as well as the final concentration of the test compounds were shown in Table 9. Table 9 lists the combinations of animal experiments of capecitabine and the thymidine derivative gel (or a compounded gel of thymidine derivative and uridine derivative) and the corresponding experimental results (wherein the data in the column of control rate=the occurrence rate of hand-foot syndrome in Group of blank—the occurrence rate of hand-foot syndrome in Group of administration).
# [2] = tested on: 5-FU-induced diarrhea in Balb/c mice; experiment: 5-FU-induced diarrhea mouse model (70 mg/kg/d i.p. for three days); settings: 5-FU 70 mg/kg/d i.p. three days; for Food Uptake / Survival Rate / Diarrhea Grade: 12 days; for Diarrhea Grade: score 0-4; for Δ % BW on Day 9: (BW day 0 − BW day 9)/BW day 0, ± SEM
# Procedure: Male Balb/c mice (7-8 weeks, 23-25 g) were i.p. injected at a dose of 70 mg/kg/d, and the injection was performed for three days. The mice in the group of blank was injected with 0.9% NaCl, and evaluated for the effect by observing the change of diarrhea grade, food uptake, and weight change. The severity of diarrhea was scored in accordance with the following standards: 0: normal feces, 1: soft feces, 2: slightly wet, soft feces, 3: wet, unformed feces, with moderate coloration in perianal region, 4: watery feces with heavy coloration of hair in perianal region. The severity of diarrhea was evaluated by occurrence scores of various grades of diarrhea (Scores 0 to 4) and average score of diarrhea. […] The models were stable, and satisfied the experimental requirements.
# The male Balb/c mice (7-8 weeks, 23-25 g) were fed and adapted for 1 week, and then divided into groups, with 10 mice in each group for administration test. 5-FU was dissolved in a 0.9% NaCl solution, and the mice in the model group and the treatment group were all i.p. injected at a dose of 70 mg/kg/d. The administration doses are shown in Table 6, and the modeling was completed in three days. While modeling of injection administration of 5-FU, the thymidine derivative or the combination of thymidine derivative and uridine derivative was administered by gavage, a series of compounds were dissolved in a PBS solution containing 5% DMSO+1% HPMC. The mice were daily observed for counting the diarrhea status, food uptake, weight change (A % BW) (the weight changes recorded in the table is the value on Day 9) and other information. After 12 days, the experiments were completed and statistically analyzed for the results.
# [3] = tested on: hand-foot syndrome caused by Acelarin (NUC-1031) in rats; experiment: Rat model of hand-foot syndrome caused by Acelarin (NUC-1031), gel application; settings: Acelarin (NUC-1031) 130 mg/kg intraperitoneal injection twice a week, gel 3 wt%, 30 days
# Procedure: After SD rats were fed and adapted for one week (about 200 g), the rats were divided into groups, with 10 rats in each group. Then, the rats were subject to gavage administration. Capecitabine was dissolved in a 1:1 mixed solution of castor oil and ethanol and diluted for three times with PBS buffer. After gavage, the rats were fixed with a fixed cylinder, and a gel of thymidine derivative (or a compounded gel of thymidine derivative and uridine derivative) was applied to double hind paws (about 1 cm*3 cm) of the rats in group of administration (the types and concentrations are shown in Table 4), and a blank gel was applied to the group of blank (as a blank control). After approximately 4 hours of application, the rats were released after 4 hours, wiped with clean water to remove any residual drug at the application site, and allowed back to the cage. The thymidine derivative gel (or the compounded gel of thymidine derivative and uridine derivative) was administered with gavage every day. The gavage and application tests are repeated daily until the group of blank has developed obvious hand-foot syndrome.
# The effects of thymidine derivative or a combination of thymidine derivative and uridine derivative on the chemotherapeutic drug-induced hand-foot syndrome in a rat model were tested according to the method in Examples 30-40. At the same time, paws of rats after treatment with the drug were taken and observed for their inflammation by hematoxylin-eosin staining (HE) and immunohistochemical staining (IHC).
# as §1, with “8.” for “9.”, “8” for “9”, “animal experiment combination” for “combinations”, “a chemotherapeutical drug” for “animal experiments of capecitabine”, “the compound” for “a compounded”, “(wherein,” for “(wherein”
# [4] = read-out: Control Rate Forepaws
# [5] = read-out: Control Rate Hindpaws
smiles,measurement,setting,value
CC(=O)OCC1OC(n2cc(C)c(=O)[nH]c2=O)CC1OC(C)=O (stereo not drawn) [T1],inhibition in vivo at 300 mg/kg,[1]; [4],80%
same,inhibition in vivo at 300 mg/kg,[1]; [5],90%
same,inhibition in vivo at 0.5 %,[1]; [4],30%
same,inhibition in vivo at 0.5 %,[1]; [5],20%
same,inhibition in vivo at 2 %,[1]; [4],45.6%
same,inhibition in vivo at 2 %,[1]; [5],34.4%
same,inhibition in vivo at 5 %,[1]; [4],67.8%
same,inhibition in vivo at 5 %,[1]; [5],78.9%
same,Food Uptake,[2]; 37 mpk BID PO,155
same,Survival Rate,[2]; 37 mpk BID PO,100%
same,Diarrhea Grade,[2]; 37 mpk BID PO,1.4
same,Food Uptake,[2]; 75 mpk BID PO,100
same,Survival Rate,[2]; 75 mpk BID PO,80%
same,Diarrhea Grade,[2]; 75 mpk BID PO,1.3
same,Food Uptake,[2]; 150 mpk BID PO,89
same,Survival Rate,[2]; 150 mpk BID PO,80%
same,Diarrhea Grade,[2]; 150 mpk BID PO,1.5
same,Δ % BW on Day 9,[2]; 37 mpk BID PO,4.3% ± 3.7
same,Δ % BW on Day 9,[2]; 75 mpk BID PO,3.8% ± 1.6
same,Δ % BW on Day 9,[2]; 150 mpk BID PO,16.3% ± 6.5
CC(=O)O[C@H]1C[C@H](n2cc(C)c(=O)[nH]c2=O)O[C@@H]1CO [T2],inhibition in vivo at 2 %,[1]; [4],40%
same,inhibition in vivo at 2 %,[1]; [5],27.5%
same,Food Uptake,[2]; 75 mpk BID PO,123
same,Survival Rate,[2]; 75 mpk BID PO,100%
same,Diarrhea Grade,[2]; 75 mpk BID PO,1.4
same,Δ % BW on Day 9,[2]; 75 mpk BID PO,6.6% ± 3.1
CC(=O)OC[C@H]1O[C@@H](n2cc(C)c(=O)[nH]c2=O)C[C@@H]1O [T3],inhibition in vivo at 2 %,[1]; [4],20%
same,inhibition in vivo at 2 %,[1]; [5],30%
same,Food Uptake,[2]; 50 mpk BID PO,109
same,Survival Rate,[2]; 50 mpk BID PO,70%
same,Diarrhea Grade,[2]; 50 mpk BID PO,1.6
same,Δ % BW on Day 9,[2]; 50 mpk BID PO,8.4% ± 3.2
COc1ccc2cc([C@H](C)C(=O)OC[C@H]3O[C@@H](n4cc(C)c(=O)[nH]c4=O)C[C@@H]3O)ccc2c1 [T25],inhibition in vivo at 5 %,[1]; [4],44.4%
same,inhibition in vivo at 5 %,[1]; [5],66.7%
same,inhibition in vivo at 1 %,"[1]; transdermal 1% (wt %), read-out: Control Rate Forepaws",22.2%
same,inhibition in vivo at 1 %,"[1]; transdermal 1% (wt %), read-out: Control Rate Hindpaws",44.4%
same,inhibition in vivo at 3 %,"[1]; transdermal 3% (wt %), read-out: Control Rate Forepaws",25%
same,inhibition in vivo at 3 %,"[1]; transdermal 3% (wt %), read-out: Control Rate Hindpaws",37.5%
same,Control Rate Forepaws,[3],57.14%
same,Control Rate Hindpaws,[3],42.86%
"Cc1cn([C@H]2C[C@H](O)[C@@H](COC(=O)C(C)c3cccc(Oc4ccccc4)c3)O2)c(=O)[nH]c1=O (stereo partly drawn) [T27, ((2R,3S, 5R)-3-hydroxyl-5-(5-methyl-2,4-dioxy-3,4-dihydropyrimidin-1(2H)-yl)tetrahydrofuran-2-yl)2-(3-phenoxyphenyl)propionate Methyl]",Control Rate Forepaws,[1]; transdermal 1% (wt %),50%
same,Control Rate Hindpaws,[1]; transdermal 1% (wt %),62.50%
same,Control Rate Forepaws,[1]; transdermal 3% (wt %),42.86%
same,Control Rate Hindpaws,[1]; transdermal 3% (wt %),71.43%
Cc1cn([C@H]2C[C@H](O)[C@@H](COC(=O)[C@H](C)c3ccc(CC(C)C)cc3)O2)c(=O)[nH]c1=O [T32],inhibition in vivo at 300 mg/kg,[1]; [4],71.4%
same,inhibition in vivo at 300 mg/kg,[1]; [5],57.1%
same,Control Rate Forepaws,[3],50%
same,Control Rate Hindpaws,[3],62.50%
CC1=C(CC(=O)OC[C@H]2O[C@@H](n3cc(C)c(=O)[nH]c3=O)C[C@@H]2O)c2cc(F)ccc2/C1=C\c1ccc([S+](C)[O-])cc1 (stereo partly drawn) [T40],inhibition in vivo at 200 mg/kg,[1]; [4],75%
same,inhibition in vivo at 200 mg/kg,[1]; [5],88%
same,Control Rate Forepaws,[3],50%
same,Control Rate Hindpaws,[3],62.50%
Cc1ccc(C(=O)c2ccc(CC(=O)O[C@H]3C[C@H](n4cc(C)c(=O)[nH]c4=O)O[C@@H]3CO)n2C)cc1 [T45],inhibition in vivo at 250 mg/kg,[1]; [4],57.1%
same,inhibition in vivo at 250 mg/kg,[1]; [5],42.9%
